Measured values reported in paper PMC6754442, “Structure of Csx1-cOA4 complex reveals the basis of RNA decay in Type III-B CRISPR-Cas” (Nature Communications, 2019).
pKd: −log10 of the molar value. Blank lines part the entries; values can stand above or below the compound they belong to.

Columns and labels:
SisCsx1 [1] = biological target: T1, SisCsx1 (Saccharolobus islandicus, UniProt F0NE21); assay: fluorescent dark-RNA cleavage (activation dose response); format: biochemical; conditions: 1-128 nM cOA4, 34 nM SisCsx1, 0.2 µM dark-RNA, 70 °C, 3 min; allosteric activator
T1 construct: gene SiRe_0884; full-length His-tagged, expressed from pSe-Csx1 in S. islandicus delta-csx1 delta-alpha; 300 kDa hexamer (trimer of dimers); CARF-HTH-HEPN; cOA4 site between two CARF domains; residues printed up to A454
T1 sequence (F0NE21 1-454): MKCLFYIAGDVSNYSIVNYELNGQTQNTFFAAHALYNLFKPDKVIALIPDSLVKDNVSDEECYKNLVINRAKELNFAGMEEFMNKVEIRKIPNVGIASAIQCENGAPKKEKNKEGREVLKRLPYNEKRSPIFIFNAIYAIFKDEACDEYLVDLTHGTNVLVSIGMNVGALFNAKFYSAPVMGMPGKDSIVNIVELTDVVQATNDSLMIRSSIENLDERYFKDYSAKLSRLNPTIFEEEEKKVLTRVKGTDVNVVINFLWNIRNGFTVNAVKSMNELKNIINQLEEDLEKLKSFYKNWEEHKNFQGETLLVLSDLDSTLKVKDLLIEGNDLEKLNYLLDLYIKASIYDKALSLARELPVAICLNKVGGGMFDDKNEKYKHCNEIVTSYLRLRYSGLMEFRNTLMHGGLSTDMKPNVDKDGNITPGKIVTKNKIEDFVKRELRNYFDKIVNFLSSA

SisCsx1 [2] = biological target: T1, SisCsx1; assay: native gel shift with […]-labelled cOA4; format: binding
[3] = biological target: Sulfolobus islandicus Csx1 (Sulfolobus islandicus); assay: SEC-MALS; Superdex 200 Increase 10/300 GL, room temperature, 20 mM Tris pH 8.0, 300 mM NaCl; 50 ul injected at 1.9 mg/ml
[4] = biological target: Sulfolobus islandicus Csx1 I383A/L390D/R391A mutant (Sulfolobus islandicus); assay: as above

pKd (SisCsx1 [2]): ~7.74
Compound: Nc1ncnc2c1ncn2[C@@H]1O[C@@H]2COP(=O)(O)O[C@H]3[C@@H](O)[C@H](n4cnc5c(N)ncnc54)O[C@@H]3COP(=O)(O)O[C@H]3[C@@H](O)[C@H](n4cnc5c(N)ncnc54)O[C@@H]3COP(=O)(O)O[C@H]3[C@@H](O)[C@H](n4cnc5c(N)ncnc54)O[C@@H]3COP(=O)(O)O[C@H]2[C@H]1O [cOA4]
fluorescent dark-RNA cleavage (activation dose response) (SisCsx1 [1]): cleavage of a ssRNA substrate was quantified in the presence of increasing amounts of cOA4

stoichiometry N [3]: 6
Compound: Sulfolobus islandicus Csx1 (enzyme)

stoichiometry N [4]: 2
Compound: Sulfolobus islandicus Csx1 I383A/L390D/R391A mutant (enzyme)
